Several values for one entry are separate records, joined by “and”; a condition that tells them apart may be missing. Identical values can stand only once. Entries after “also recorded” stand apart in the source; their conditions may differ.
Assays:
[1] = Fluorescence spectra and fluorescence quantum yield (reference TPPS); format: physicochemical
Description: Absorption spectra were recorded using computerized spectrophotometers Hitachi 3400 (Japan) and SF-2000 (Russia). Fluorescence spectra were measured with a computerized spectrofluorimeter Perkin-Elmer MPF-44B. 10 mm wide quartz cuvettes were used for absorption and fluorescence measurements. Fluorescence was detected at a right angle to the excitation beam. The spectral bandwidth of the monochromator was 3 nm. […] The fluorescence quantum yields (ΦF) were determined using as a reference, solutions of TPPS (m-tetrakis(p-sulfonatophenyl)porphine) in ethanol. According to the literature, the most likely fluorescence quantum yield of TPPS in air-saturated water and ethanol is equal to 0.08 (K. Kalyanasundaram and M. Neumann-Spallart, Photophysical and redox properties of water soluble porphyrins in aqueous media, J. Phys. Chem., 1982, 86, 5163-5169; and A. T. Gradyushko, A. N. Sevchenko, K. N. Solovyov and M. P. Tsvirko, Energetics of photophysical processes in chlorophyll-like molecules, Photochem. Photobiol., 1970, 11, 387-400). The fluorescence of the samples was excited by the monochromatic light corresponding to the maximum of the Soret bands: 415 nm for TPPS in ethanol and 413 nm for TPPS in water, and 403 nm for chlorin e4 sodium in water and ethanol. The monochromator bandwidth was 3 nm. The fluorescence quantum yields (ΦF) were calculated using the following equation: […]
where (ΦTPP is the quantum yield of TPPS fluorescence, Sc is the square under the fluorescence spectrum of the chlorin e4 sodium sample, STPP is the square under the fluorescence spectrum of TPPS, and Dc and DTPP are absorbance (optical density) of the chlorin e4 sodium and TPPS respectively at the excitation wavelengths. The obtained results were collated using relative units of intensity of the excited light at the excitation wavelengths. The intensities of the monochromatic light were measured using a calibrated silicon detector from Optical Power Meter System ThorLabs (Karlsfeld, Germany).

[2] = tested on: naso pharyngeal carcinoma with metastases in the lymph nodes of the left neck and in the lung; assay: In vivo studies Example 10: patient, oral chlorin e4 sodium plus laser and LED light; set-up: species or system human
Description: A patient with naso pharyngeal carcinoma with metastases in the lymph nodes of the left neck and in the lung, was treated successfully. The treatment consisted of five courses. For each course, five doses of 62.5-187.5 mg chlorin e4 sodium were administered orally over the course of eight days. 24-48 hours after each oral dose of chlorin e4 sodium, the patient was treated with laser and LED light having a wavelength of 660 nm and 760 nm. Additionally an interstitial light treatment using a fine needle was performed on the left lung to a tumour that was large in size with an optical fibre laser having a wavelength of 660 nm and 760 nm.

[3] = Singlet oxygen phosphorescence at 1270 nm after pulsed laser excitation; format: physicochemical; conditions: for Decay time of photosensitized singlet oxygen phosphorescence / Rise time of photosensitized singlet oxygen phosphorescence: air saturated
Description: Singlet oxygen phosphorescence was detected using measurement of infrared phosphorescence at 1270 nm corresponding to the transition of oxygen molecules from the singlet to the triplet state. Phosphorescence was recorded at room temperature with the laser phosphorescence spectrometer described at A. A. Krasnovsky Jr., Photodynamic action and singlet oxygen, Biofizika, 2004, 49, 305-321; and A. A. Krasnovsky Jr., Singlet oxygen and primary mechanisms of photodynamic therapy and photodynamic diseases, In: Photodynamic therapy at the cellular level, ed. A. B. Uzdensky, Research Singpost, Kerala, India, 2007, 17-62. For excitation, nanosecond pulses of 511 nm radiation from a copper-vapour laser (Troitzk, Physics Institute of the Russian Academy of Science) were employed. Laser radiation passed additionally through a green light filter SZS-22 (4 mm), which transmitted laser light and cut off IR laser radiation caused by heating of the laser tube. Pulse duration was 20 ns, pulse energy varied from 18 to 40 μJ and the pulse repetition rate was 12 kHz. The laser light was collimated on the surface of a 1 cm rectangular quartz cuvette. The diameter of the illuminated spot on the surface of the cell was 5 mm. For kinetic measurements another spectrometer was used without a monochromator. In this case, phosphorescence resulting from the right angle to the excitation beam was focused on the photocathode of a cooled S-1 photomultiplier (FEU-112) through a cut-off IR light filter and an interference filter with the transmission maximum at 1270 nm. The phosphorescence spectra were measured using a MS-80 high throughput grid monochromator. In this case, phosphorescence was focused on the entry slit of this monochromator. The bandwidth of the monochromator corresponded to a 20 nm spectral interval. The monochromatic light was focused on the photocathode of a cooled S-1 photomultiplier (FEU-83). The photomultiplier signal was registered using time-correlated single photon counting and averaged over many laser pulses. In most experiments, one-channel on time was equal to 81 ns. When the pigment bleaching reached 10%, the solution was replaced by a fresh one and measurement was continued. […] Reasonable phosphorescent curves were obtained after 10-20 minutes signal accumulation and therefore samples were changed many times. As described previously (D. A. Butorina, A. A. Krasnovsky Jr. and A. V. Priezzev, Investigation of the kinetic parameters of singlet molecular oxygen in aqueous porphyrin solutions, Influence of detergents and the quencher sodium azide, Biofizika, 2003, 48, 189-196; A. A. Krasnovsky Jr., Luminescence and photochemical studies of singlet oxygen photonics, J. Photochem. Photobiol. A: Chem., 2008, 196, 210-218; and N. Kuznetsova, D. Makarov, O. Yuzhakova, A. Strizhakov, Y. Roumbal, L. Ulanova, A. Krasnovsky and O. Kaliya, Photophysical properties and photodynamic activity of octacationic oxotitanium(IV) phthalocyanines, Photochemical Photobiological Sciences, 2009, 8, 1724-1733), for computer analysis the following two-exponential equation was used: […]
I(t)I0·[exp(−kdecay·t)−exp(−krise·t)]+n
where kdecay and krise are the rate constants of the decay and rise phases of the phosphorescence curves after a laser pulse, n is the off noise of the photomultiplier, I0 is the zero-time phosphorescence intensity, and I(t) is the phosphorescence intensity at time t. To reduce contribution of the luminescence of the pigment in the quartz cuvette, which was observed shortly after laser pulses, readings were taken starting from 400 ns after laser pulses in ethanol and 1 μs in water. In addition, phosphorescence and kinetic traces were measured also from the control chlorin e4 sodium solutions containing high concentration of sodium azide, which completely quenched singlet oxygen. […]

[4] = tested on: breast cancer in the right breast; assay: In vivo studies Example 9: patient, oral chlorin e4 sodium plus laser and LED light; set-up: species or system human
Description: A patient with breast cancer in the right breast was treated successfully. The treatment consisted of three courses. For each course, five doses of 62.5-187.5 mg chlorin e4 sodium were administered orally over the course of eight days. 24-48 hours after each oral dose of chlorin e4 sodium, the patient was treated with laser and LED light having a wavelength of 660 nm and 760 nm.

SMILES: C=Cc1c(C)c2cc3nc(c(C)c4[nH]c(cc5nc(cc1[nH]2)C(C)=C5CC)c(C)c4C(=O)O)[C@@H](CCC(=O)O)[C@@H]3C [chlorin e4 sodium]
- Fluorescence quantum yield (ranking among solvents) ([1]; SDS containing water): slightly less
- Fluorescence quantum yield (ranking among solvents) ([1]; ethanol): highest
- Fluorescence quantum yield (ranking among solvents) ([1]; water without SDS): smallest; also recorded: still high
- Response (PET/CT) ([2]; five courses, interstitial light on left lung): very good treatment response
- Patient status ([2]; one year and five months after starting, two months after completion of treatment): alive and well
- Pigment bleaching under laser irradiation ([3]; 511 nm laser pulses, solutions changed after each 60-180 s irradiation): bleached rather rapidly
- Decay time of photosensitized singlet oxygen phosphorescence ([3]; Ethanol): 13.5 μs and 13.5 ± 0.3 μs
- Rise time of photosensitized singlet oxygen phosphorescence ([3]; Ethanol): 0.3 ± 0.3 μs
- Decay time of photosensitized singlet oxygen phosphorescence ([3]; Water + 0.2M SDS): 3.85 ± 0.3 μs
- Rise time of photosensitized singlet oxygen phosphorescence ([3]; Water + 0.2M SDS): 1.2 ± 0.3 μs
- Decay time of photosensitized singlet oxygen phosphorescence ([3]; Water): 3.3 ± 0.3 μs
- Rise time of photosensitized singlet oxygen phosphorescence ([3]; Water): 1.8 ± 0.4 μs
- Rise time of singlet oxygen phosphorescence ([3]; ethanol): 300 ns
- Singlet oxygen quantum yield ([3]; ethanol, from phosphorescence kinetic curves, reference TPPS): 0.63±0.05
- Photosensitizing activity ([3]; water without SDS): lower than in ethanol
- Response of the breasts (mammography, ultrasound and PET/CT) ([4]; before and after three courses): complete response
- Patient status ([4]; one year and seven months after starting, 10 months after completion of treatment): alive and well
- Side effects ([4]; three courses): no side effects

Reference: patent US20150315202A1, “CHLORIN DERIVATIVE USEFUL IN PHOTODYNAMIC THERAPY AND DIAGNOSIS” (RMW CHO GROUP LIMITED, priority 2012, published 2015)
